From the NIST ThermoML archive (doi:10.1016/j.fluid.2019.06.020)
± gives the expanded uncertainty stated by the source.

Settings: Liquid, Closed cell (Static) method

For `FCC(F)(F)F` [1,1,1,2-tetrafluoroethane], the “vapor or sublimation pressure” value (273.17 K) was 294.3 ± 5 kPa, the “vapor or sublimation pressure” value (278.17 K) was 351.2 ± 5.1 kPa and the “vapor or sublimation pressure” value (283.16 K) was 415.4 ± 5.1 kPa. The “vapor or sublimation pressure” value (288.16 K) was 488.2 ± 5.1 kPa, the “vapor or sublimation pressure” value (293.15 K) was 570.6 ± 5.1 kPa and the “vapor or sublimation pressure” value (298.15 K) was 664.8 ± 5.2 kPa. The “vapor or sublimation pressure” value (303.15 K) was 769.2 ± 5.2 kPa, the “vapor or sublimation pressure” value (308.15 K) was 886 ± 5.3 kPa and the “vapor or sublimation pressure” value (313.15 K) was 1017.7 ± 5.3 kPa. For the same compound, the “vapor or sublimation pressure” value (318.15 K) was 1158.1 ± 5.4 kPa, the “vapor or sublimation pressure” value (323.15 K) was 1317.4 ± 5.5 kPa and the “vapor or sublimation pressure” value (328.15 K) was 1489.6 ± 5.6 kPa. For the same compound, the “vapor or sublimation pressure” value (333.15 K) was 1679.7 ± 5.8 kPa, the “vapor or sublimation pressure” value (338.14 K) was 1889.1 ± 6 kPa and the “vapor or sublimation pressure” value (343.14 K) was 2118.1 ± 6.2 kPa. The “vapor or sublimation pressure” value (348.13 K) was 2361.2 ± 6.4 kPa and the “vapor or sublimation pressure” value (353.13 K) was 2634.6 ± 6.7 kPa.

With `C=CC(F)(F)F` [1,1,1-trifluoro-2-propene] the “vapor or sublimation pressure” value (273.17 K) was 268.8 ± 5 kPa, the “vapor or sublimation pressure” value (278.17 K) was 318.4 ± 5 kPa and the “vapor or sublimation pressure” value (283.16 K) was 373.6 ± 5.1 kPa. For the same compound, the “vapor or sublimation pressure” value (288.16 K) was 437.6 ± 5.1 kPa, the “vapor or sublimation pressure” value (293.15 K) was 510 ± 5.1 kPa and the “vapor or sublimation pressure” value (298.15 K) was 590.1 ± 5.1 kPa. The “vapor or sublimation pressure” value (303.15 K) was 678.2 ± 5.1 kPa, the “vapor or sublimation pressure” value (308.15 K) was 776.7 ± 5.2 kPa and the “vapor or sublimation pressure” value (313.15 K) was 883.6 ± 5.2 kPa. For the same compound, the “vapor or sublimation pressure” value (318.15 K) was 1001.8 ± 5.3 kPa, the “vapor or sublimation pressure” value (323.14 K) was 1130.4 ± 5.4 kPa and the “vapor or sublimation pressure” value (328.14 K) was 1274.9 ± 5.5 kPa. For the same compound, the “vapor or sublimation pressure” value (333.14 K) was 1431.6 ± 5.6 kPa, the “vapor or sublimation pressure” value (338.14 K) was 1600.5 ± 5.7 kPa and the “vapor or sublimation pressure” value (343.14 K) was 1785.7 ± 5.8 kPa. The “vapor or sublimation pressure” value (348.13 K) was 1986.4 ± 6 kPa and the “vapor or sublimation pressure” value (353.13 K) was 2203.1 ± 6.2 kPa.
